Data from patent publication US20080182811A1, “METABOTROPIC GLUTAMATE RECEPTOR ACTIVATOR” (Ajinomoto Co., Inc., priority 2005, published 2008).

How the values were obtained:
Type in all cases: cell-based
[1] = biological target: T1, group II metabotropic glutamate receptor subtype 3 (mGluR3) (Homo sapiens, UniProt Q14832); test: Electrophysiological measurement of response current in Xenopus oocytes injected with mGluR3, GIRK1 and GIRK4 cRNAs; conditions: for mgluR3 (receptor activation by amino acid): amino acid alone, 1 mM, oocytes injected with mGluR3, GIRK1, GIRK4 cRNAs; for effect of amino acid (response current value) with cation vs amino acid alone: coexistence with calcium ion (10 mM), FIG. 7; for effect of amino acid (response current value) with cation vs amino acid alone / effect of amino acid (response current value) with nucleic acid and cation vs amino acid alone / effect of amino acid (response current value) with nucleic acid vs amino acid alone: glutamic acid 3 μM, aspartic acid 300 μM, leucine 1 mM; for effect of amino acid (response current value) with cation vs amino acid alone / effect of amino acid (response current value) with nucleic acid and cation vs amino acid alone: cysteine 1 mM; for effect of amino acid (response current value) with nucleic acid and cation vs amino acid alone: coexistence with inosinic acid (1 mM) and calcium ion (10 mM), FIG. 8; for effect of amino acid (response current value) with nucleic acid vs amino acid alone: coexistence with inosinic acid (1 mM), valine 1 mM, FIG. 6
T1 construct: expressed in transfected cells; host or cells: Xenopus oocytes injected with cRNAs of mGluR3, GIRK1 and GIRK4

[2] = biological target: T2, group I metabotropic glutamate receptor subtype 5 (mGluR5) (Homo sapiens, UniProt P41594); test: Electrophysiological measurement of response current in Xenopus oocytes injected with mGluR5 cRNA; conditions: aspartic acid 300 μM, valine 3 mM; for mGluR5 (receptor activation by amino acid): amino acid alone, others 10 mM, oocytes injected with mGluR5 cRNA; for mGluR5 (receptor activation by amino acid) / effect of amino acid (response current value) with nucleic acid and cation vs amino acid alone: cysteine 1 mM; for effect of amino acid (response current value) with nucleic acid and cation vs amino acid alone: coexistence with both inosinic acid (1 mM) and calcium ion (10 mM), FIG. 4; for effect of amino acid (response current value) with nucleic acid and cation vs amino acid alone / effect of amino acid (response current value) with cation vs amino acid alone / effect of amino acid (response current value) with nucleic acid vs amino acid alone: glutamic acid 3 μM; for effect of amino acid (response current value) with cation vs amino acid alone: coexistence with calcium ion (10 mM), FIG. 3; for effect of amino acid (response current value) with cation vs amino acid alone / effect of amino acid (response current value) with nucleic acid vs amino acid alone: cysteine 3 mM; for effect of amino acid (response current value) with nucleic acid vs amino acid alone: coexistence with inosinic acid (1 mM), FIG. 2
T2 construct: expressed in transfected cells; host or cells: Xenopus oocytes injected with cRNA
Text: A metabotropic glutamate receptor subtype 5 (mGluR5) was used as a group I metabotropic glutamate receptor. A metabotropic glutamate receptor subtype 3 (mGluR3) was used as a representative of group II metabotropic glutamate receptors. A metabotropic glutamate receptor subtype 8 (mGluR8) was used as a representative of group III metabotropic glutamate receptors. The genes of the three metabotropic glutamate receptors, G-protein-gated inward rectifier K channel 1 (GIRK1), and G-protein-gated inward rectifier K channel 4 (GIRK4) were prepared as follows.
PCR was performed using a cDNA derived from the human brain (manufactured by Clontech) as a material and using Pfu ultra DNA Polymerase (manufactured by Stratagene) under the following conditions. After a 3-minute reaction at 94° C., a cycle of 94° C./30 seconds, 55° C./30 seconds, and 72° C./2 minutes was repeated 35 times, followed by a 7-minute reaction at 72° C. Amplified PCR products were subjected to agarose gel electrophoresis, stained with a DNA staining reagent and detected by UV irradiation. The lengths of the PCR products were confirmed by comparing the lengths with a DNA marker having a known size, which was electrophoresed simultaneously with the PCR products. A plasmid vector pBR322 was cleaved with a restriction enzyme EcoRV (manufactured by TAKARA BIO INC.). The respective gene fragments amplified by PCR were ligated to the cleaved site using Ligation Kit (manufactured by Promega). Escherichia coli DH5a strain was transformed with the reaction solution, and transformants carrying plasmids where the PCR products were cloned were selected. The PCR amplified products were identified by DNA sequence analysis. The recombinant plasmids were used as a template to prepare cRNA of each of the receptor genes using a cRNA preparation kit (Ambion, Inc.).
Special grade reagents of twenty-three L-amino acids including alanine, arginine, asparagine, aspartic acid, cysteine, glutamine, glutamic acid, glycine, histidine, isoleucine, leucine, lysine, methionine, phenylalanine, proline, serine, threonine, tryptophan, tyrosine, valine, ornithine, taurine, and hydroxyproline were used. Special grade reagents of inosine and calcium chloride were used. Glutamine and cysteine were prepared every time before use, and the other reagents were prepared and stored at −20° C. A solution for dissolving amino acids, nucleic acids, and cations, a solution for preparing Xenopus oocytes, and a solution for culturing Xenopus oocytes have the following composition. NaCl 96 mM/KCl 2 mM/MgCl2 1 mM/CaCl2 1.8 mM/Hepes 5 mM/pH 7.2.
Ca ion concentration-dependent Cl ion current measurement method using a Xenopus oocyte expression system was used as a method of measuring the signaling via a metabotropic glutamate receptor. The abdomen of a Xenopus were incised, and the egg mass was removed and treated with a 1% collagenase solution at 20° C. for 2 hours, to thereby obtain individual oocytes. To one oocyte was introduced 50 nl of 1 μg/μl receptor cRNA or 50 nl of distilled water using a microcapillary, followed by culture at 18° C. for 2 or 3 days. This culture was performed using a solution obtained by adding 2 mM pyruvic acid, 10 U/ml penicillin, and 10 μg/ml streptomycin to the solution shown in Example 2. After completion of culture, a ligand solution was added to oocytes injected with the cRNA and oocytes injected with distilled water, respectively. Electrophysiological measurement was performed using an amplifier Geneclamp 500 (manufactured by Axon Instruments, Inc.) and recording software AxoScope 9.0 (manufactured by Axon Instruments, Inc.). The oocytes were subjected to membrane potential fixation at −70 mV by a two-electrode membrane potential fixation method, and intracellular currents via Ca ion concentration-dependent Cl ion were measured. The maximal value of the intracellular currents was defined as a response current value.

[3] = biological target: T3, group III metabotropic glutamate receptor subtype 8 (mGluR8) (Homo sapiens, UniProt O00222); test: Electrophysiological measurement of response current in Xenopus oocytes injected with mGluR8, GIRK1 and GIRK4 cRNAs; conditions: cysteine 1 mM; for mgluR8 (receptor activation by amino acid): amino acid alone, aspartic acid 300 μM, valine 3 mM, others 10 mM, oocytes injected with mGluR8, GIRK1, GIRK4 cRNAs; for effect of amino acid (response current value) with nucleic acid and cation vs amino acid alone: coexistence with both inosinic acid (1 mM) and calcium ion (10 mM), FIG. 12; for effect of amino acid (response current value) with nucleic acid and cation vs amino acid alone / effect of amino acid (response current value) with cation vs amino acid alone / effect of amino acid (response current value) with nucleic acid vs amino acid alone: glutamic acid 3 μM; for effect of amino acid (response current value) with cation vs amino acid alone: coexistence with calcium ion (10 mM), FIG. 11; for effect of amino acid (response current value) with nucleic acid vs amino acid alone: coexistence with inosinic acid (1 mM), FIG. 10
T3 construct: expressed in transfected cells; host or cells: Xenopus oocytes injected with cRNAs of mGluR8, GIRK1 and GIRK4
T3 sequence (O00222 34-908): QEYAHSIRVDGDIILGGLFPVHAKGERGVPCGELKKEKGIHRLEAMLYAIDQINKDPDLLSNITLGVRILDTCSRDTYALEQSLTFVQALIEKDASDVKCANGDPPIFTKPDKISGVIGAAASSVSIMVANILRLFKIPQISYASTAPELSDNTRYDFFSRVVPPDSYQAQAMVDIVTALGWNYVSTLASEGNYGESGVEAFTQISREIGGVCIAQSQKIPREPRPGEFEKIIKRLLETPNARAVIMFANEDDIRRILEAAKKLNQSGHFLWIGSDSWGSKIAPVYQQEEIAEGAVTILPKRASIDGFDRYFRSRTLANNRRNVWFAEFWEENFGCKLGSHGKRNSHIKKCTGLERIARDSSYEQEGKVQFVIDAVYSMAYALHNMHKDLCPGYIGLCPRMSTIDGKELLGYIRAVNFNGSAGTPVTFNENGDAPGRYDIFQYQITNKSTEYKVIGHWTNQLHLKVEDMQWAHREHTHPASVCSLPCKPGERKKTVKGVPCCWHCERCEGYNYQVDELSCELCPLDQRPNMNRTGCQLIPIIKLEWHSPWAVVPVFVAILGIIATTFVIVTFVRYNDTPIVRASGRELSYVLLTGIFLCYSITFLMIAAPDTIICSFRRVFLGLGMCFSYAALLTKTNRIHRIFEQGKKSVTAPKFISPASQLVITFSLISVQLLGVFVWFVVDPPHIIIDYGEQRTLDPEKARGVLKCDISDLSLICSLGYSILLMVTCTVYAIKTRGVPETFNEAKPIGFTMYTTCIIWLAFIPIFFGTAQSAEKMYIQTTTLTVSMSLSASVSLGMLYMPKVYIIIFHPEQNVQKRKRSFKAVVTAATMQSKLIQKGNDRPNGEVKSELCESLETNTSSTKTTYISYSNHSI

T1 sequence (Q14832 23-879): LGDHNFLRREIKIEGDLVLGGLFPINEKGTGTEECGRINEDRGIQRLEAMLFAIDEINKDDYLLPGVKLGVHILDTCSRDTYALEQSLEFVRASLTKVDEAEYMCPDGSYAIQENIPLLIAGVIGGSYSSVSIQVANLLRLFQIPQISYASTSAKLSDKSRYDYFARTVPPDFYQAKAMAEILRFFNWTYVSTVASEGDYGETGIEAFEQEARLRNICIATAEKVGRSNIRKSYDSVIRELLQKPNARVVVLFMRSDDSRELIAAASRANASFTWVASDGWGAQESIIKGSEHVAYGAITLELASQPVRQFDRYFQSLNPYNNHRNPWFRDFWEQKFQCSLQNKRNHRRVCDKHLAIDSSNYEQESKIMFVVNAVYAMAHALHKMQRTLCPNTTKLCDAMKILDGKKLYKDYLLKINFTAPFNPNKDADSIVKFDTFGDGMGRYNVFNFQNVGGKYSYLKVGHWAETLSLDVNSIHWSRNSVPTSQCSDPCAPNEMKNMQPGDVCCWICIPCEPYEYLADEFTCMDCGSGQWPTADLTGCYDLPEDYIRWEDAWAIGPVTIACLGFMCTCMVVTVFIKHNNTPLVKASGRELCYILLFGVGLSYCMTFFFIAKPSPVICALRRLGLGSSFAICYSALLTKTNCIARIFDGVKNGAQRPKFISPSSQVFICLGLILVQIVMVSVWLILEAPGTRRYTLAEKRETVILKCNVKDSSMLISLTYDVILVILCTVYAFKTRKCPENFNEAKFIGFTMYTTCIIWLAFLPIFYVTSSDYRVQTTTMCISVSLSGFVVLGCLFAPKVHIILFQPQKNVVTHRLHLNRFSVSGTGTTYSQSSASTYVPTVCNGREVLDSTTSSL
T2 sequence (P41594 21-1180 isoform P41594-2 limits assumed): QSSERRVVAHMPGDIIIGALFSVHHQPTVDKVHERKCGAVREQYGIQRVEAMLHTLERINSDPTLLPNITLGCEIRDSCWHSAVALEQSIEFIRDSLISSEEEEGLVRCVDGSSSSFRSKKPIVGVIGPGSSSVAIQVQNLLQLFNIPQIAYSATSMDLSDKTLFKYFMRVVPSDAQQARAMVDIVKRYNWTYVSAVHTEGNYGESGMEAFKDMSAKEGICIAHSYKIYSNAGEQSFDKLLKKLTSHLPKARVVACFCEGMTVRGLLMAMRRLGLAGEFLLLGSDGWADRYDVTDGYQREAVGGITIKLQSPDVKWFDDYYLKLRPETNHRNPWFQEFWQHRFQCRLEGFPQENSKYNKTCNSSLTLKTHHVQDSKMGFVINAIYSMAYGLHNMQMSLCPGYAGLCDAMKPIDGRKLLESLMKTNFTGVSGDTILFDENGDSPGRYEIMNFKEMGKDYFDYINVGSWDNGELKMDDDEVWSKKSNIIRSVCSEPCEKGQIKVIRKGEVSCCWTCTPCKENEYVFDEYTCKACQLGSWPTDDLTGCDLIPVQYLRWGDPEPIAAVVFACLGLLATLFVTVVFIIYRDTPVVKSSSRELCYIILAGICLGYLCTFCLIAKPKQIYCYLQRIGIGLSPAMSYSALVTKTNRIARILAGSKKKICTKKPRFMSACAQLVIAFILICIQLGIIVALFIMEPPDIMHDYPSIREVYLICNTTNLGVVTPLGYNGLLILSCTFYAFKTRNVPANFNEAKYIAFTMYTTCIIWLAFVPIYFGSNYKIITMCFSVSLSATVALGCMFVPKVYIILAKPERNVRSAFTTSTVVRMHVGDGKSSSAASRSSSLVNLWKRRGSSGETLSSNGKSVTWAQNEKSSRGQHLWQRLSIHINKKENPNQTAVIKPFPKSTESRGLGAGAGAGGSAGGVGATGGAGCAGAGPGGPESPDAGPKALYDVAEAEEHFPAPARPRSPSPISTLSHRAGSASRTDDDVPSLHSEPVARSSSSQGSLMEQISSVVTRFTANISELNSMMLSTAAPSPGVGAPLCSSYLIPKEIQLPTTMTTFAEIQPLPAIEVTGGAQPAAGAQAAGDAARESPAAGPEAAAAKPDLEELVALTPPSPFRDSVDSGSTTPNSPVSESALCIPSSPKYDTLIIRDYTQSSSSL

SMILES	mgluR3 (receptor activation by amino acid) [1]	effect of amino acid (response current value) with cation vs amino acid alone [1]	effect of amino acid (response current value) with nucleic acid and cation vs amino acid alone [1]	effect of amino acid (response current value) with nucleic acid vs amino acid alone [1]	mGluR5 (receptor activation by amino acid) [2]	effect of amino acid (response current value) with nucleic acid and cation vs amino acid alone [2]	effect of amino acid (response current value) with cation vs amino acid alone [2]	effect of amino acid (response current value) with nucleic acid vs amino acid alone [2]	mgluR8 (receptor activation by amino acid) [3]	effect of amino acid (response current value) with nucleic acid and cation vs amino acid alone [3]	effect of amino acid (response current value) with cation vs amino acid alone [3]	effect of amino acid (response current value) with nucleic acid vs amino acid alone [3]	also measured
N[C@@H](CC(=O)O)C(=O)O [Aspartic acid, aspartic acid]	Activated	enhanced	enhanced	enhanced	Activated	enhanced	enhanced	enhanced					mgluR3 (receptor activation by amino acid) ([1]; listed as aspartic acid): effects of enhancing the activation; mGluR5 (receptor activation by amino acid) ([2]; listed as aspartic acid): effects of enhancing
N[C@@H](CCC(=O)O)C(=O)O [Glutamic acid, glutamic acid, reference compound]	Activated	enhanced	enhanced	enhanced	Activated	enhanced	enhanced	enhanced	Activated	enhanced	enhanced	enhanced	mgluR3 (receptor activation by amino acid) ([1]; listed as glutamic acid): effects of enhancing the activation; mgluR8 (receptor activation by amino acid) ([3]; listed as glutamic acid): effects of activating; mGluR5 (receptor activation by amino acid) ([2]; listed as glutamic acid): effects of enhancing
CC(C)[C@H](N)C(=O)O [Valine, valine]	Activated			enhanced	Activated	enhanced	enhanced	enhanced					mgluR3 (receptor activation by amino acid) ([1]; listed as valine): effects of enhancing the activation; mGluR5 (receptor activation by amino acid) ([2]; listed as valine): effects of enhancing
N[C@@H](CS)C(=O)O [Cysteine, cysteine]	Activated	enhanced	enhanced		Activated	enhanced	enhanced	enhanced	Activated	enhanced	enhanced	enhanced	mgluR3 (receptor activation by amino acid) ([1]; listed as cysteine): effects of enhancing the activation; mgluR8 (receptor activation by amino acid) ([3]; listed as cysteine): effects of activating; mGluR5 (receptor activation by amino acid) ([2]; listed as cysteine): effects of enhancing
